Common to all, as to assay type: functional, cell-based
The test system of one assay is HepG2. The assay can be described thus: Cytotoxicity against human HepG2 cells by MTT method.
The subject of another assay is MCF7. The experiment in a line: Cytotoxicity against human MCF7 cells by MTT method. On the technique in general: Tetrazolium dyes change colour on reduction, which living cells bring about.
The next assay relates to MDA-MB-435. The experiment in a line: Cytotoxicity against human MDA-MB-435 cells by MTT method.

≈ marks a conversion by molar mass, not a printed value.

As to `CC(C)[C@H]1C=C[C@]2(C)Oc3c(C(=O)/C=C/c4ccccc4)c(O)cc(O)c3C2C1` (stereo partly drawn) [Sumadain C], the IC50 in the assay with HepG2 was found to be 13 µg/mL (≈ 33.3 µM); with MCF7, 15.9 µg/mL (≈ 40.8 µM); with MDA-MB-435 it was 12.8 µg/mL (≈ 32.7 µM).

The term IC50 denotes the concentration that gives 50% inhibition. Higher therefore signals weaker potency.

The record behind these values is ChEMBL document CHEMBL1151867, “Two novel monoterpene-chalcone conjugates isolated from the seeds of Alpinia katsumadai” (Bioorg Med Chem Lett, 2009).
